PMC9519552, “Activation of the human insulin receptor by non-insulin-related peptides” (Nature Communications, 2022)
Like-named read-outs stand apart in the source and are kept apart here. Positions of bridges follow the written chain, without caps; N, C: chain ends. Residues, ends and D or L forms follow the SMILES beside them.

Tests used:
human IR-A (holoIR-A) = target: T1, human IR-A (holoIR-A) (Homo sapiens, UniProt P06213); experiment: holoIR-A competitive radioligand binding assay (scintillation proximity assay); conditions: for Ki: IM172N22(-) mutant peptide set; for reduction in ki for hIR-A on substitution: relative to control peptide IM172N22 devoid of N-terminal phenylacetylation
T1 construct: expressed in transfected cells; host or cells: HEK293 (ATCC #CRL-1573), stably transfected; membrane preparation
Protocol: Cellular membranes were prepared from human embryonic kidney (HEK293; ATCC #CRL-1573) cells stably transfected with cDNA corresponding to human IR-A (holoIR-A) plus a C-terminal C9 tag ([…]) inserted within a pcDNA3.1 plasmid (Invitrogen), with positive clones selected with 800 μg mL^−1 neomycin and confirmed by Western Blot. Frozen cell pellets were thawed in ice-cold homogenization/resuspension buffer (50 mM Tris-HCl, pH 7.5) containing one cOmplete® protease inhibitor tablet with EDTA (Roche Diagnostics) per 50 mL buffer. Cells were homogenized with an overhead motor-driven Teflon-glass homogenizer using 15–20 strokes, followed by centrifugation at 1100 × g for 10 min at 4 °C. The supernatant was saved on ice, pellets were homogenized as before, and centrifuged at 1100 × g for 10 min at 4 °C. Both supernatants were combined and subsequently centrifuged at 35,000 × g for 60 min at 4 °C. The pellet was resuspended in buffer (4 to 5 mL g^−1 of starting cell paste) containing protease inhibitors and quick frozen in liquid nitrogen prior to storage at −80 °C. Protein concentration was determined using a BCA kit (Thermo Scientific) with bovine serum albumin (BSA) as standard.
The assays were performed with a scintillation proximity assay (SPA) method using polyvinyltoluene (PVT) wheat germ agglutinin-coupled SPA beads (Perkin Elmer). Assay buffer containing 50 mM Tris-HCl (pH 7.5), 150 mM NaCl, 0.1% w/v fatty-acid free BSA was used for all compound testing and reagent preparation. Ten-point concentration response curves with three-fold serial dilutions of test samples or controls were prepared in the assay buffer. […] Plates were sealed and shaken for 1 min on a plate shaker. Following a 10-h incubation and bead settling period at room temperature, radioactivity was determined using a MicroBeta Trilux scintillation counter (Perkin Elmer) and expressed as counts per minute (CPM). […] Samples were tested in three independent assay runs on three different days.
All test sample concentration responses were normalized to the control response and calculated as a percent of the maximal response after correcting for nonspecific binding as shown below: %Specific Inhibition=100%−[(CPM−MIN)/(MAX−MIN)×100%]
Percent specific binding (y-axis) was plotted vs log concentration of compound (x-axis) using Prism Version 9.3.1 (GraphPad Software). Individual measurements are provided as Source Data.

[1] = target: T2, human holoIR-A over-expressed in HEK293 cells (Homo sapiens, UniProt P06213); experiment: Inhibition of hIR phosphorylation by peptides, co-incubated with BHI at its EC50 (ELISA); assay type: cell-based; conditions: for hIRA Phosph IC50 Run 1 / hIRA Phosph IC50 Run 2 / hIRA Phosph IC50 Run 3: inhibition of insulin-stimulated phosphorylation; for hIRA Phosph IC50 Run 1: BHI at its EC50, run 1; for hIRA Phosph IC50 Run 2: BHI at its EC50, run 2; for hIRA Phosph IC50 Run 3: BHI at its EC50, run 3; for IC50: read-out: hIRA Phosph IC50 Mean
T2 construct: expressed in transfected cells; host or cells: HEK293, stably transfected
Protocol: Phosphorylation was quantified using an ELISA technique. Ninety-six well, flat-bottom microplates (Greiner Bio-One) were pre-coated with 2 µg mL^−1 anti-C9 monoclonal antibody (Rho 1D4; University of British Columbia)[27] in 20 mM sodium carbonate, pH 9.6, at 4 °C for overnight prior to the assay. On the assay day, plates were washed 3× with 0.1% Tween in 50 mM Tris Buffer Saline, pH 7.5 (TBST), and then blocked for greater than 1 h at room temperature (RT) with 1% BSA (Sigma) in TBST.
Stably transfected HEK293 cells over-expressing human holoIR-A containing a C-terminal C9 epitope tag ([…]), were plated at 6 × 10^4 cells per well serum-starved using 0.1% BSA in DMEM (Gibco) for overnight at standard tissue culture condition. […] After a 15-min incubation in lysis buffer at 4 °C, the lysate was transferred to anti-C9 antibody coated capture plate (Rho 1D4; University of British Columbia)[27]. […] After a 1 h incubation at room temperature, the secondary antibody was removed by washing 3× with TBST. Signal detection occurred with the addition of TMB, an HRP substrate (Pierce). After 5–10 min, the reaction was stopped by adding an equal volume of 2 M H2SO4, and the absorbance readings at 450 nm (A450) were recorded using a Envision plate reader (PerkinElmer). Samples were tested in three independent assay runs on three different days.
Percent specific response (y-axis) was plotted versus the log concentration of compound (x-axis) using Prism Version 9.3.1 (GraphPad Software). Individual measurements are provided as Source Data.

[2] = mean of 3 runs, read-out: hIRA Binding Ki Mean
[3] = run 1, read-out: hIRA Binding Ki Run 1
[4] = run 2, read-out: hIRA Binding Ki Run 2
[5] = run 3, read-out: hIRA Binding Ki Run 3

T1 sequence (P06213 28-1370 isoform P06213-2 limits assumed): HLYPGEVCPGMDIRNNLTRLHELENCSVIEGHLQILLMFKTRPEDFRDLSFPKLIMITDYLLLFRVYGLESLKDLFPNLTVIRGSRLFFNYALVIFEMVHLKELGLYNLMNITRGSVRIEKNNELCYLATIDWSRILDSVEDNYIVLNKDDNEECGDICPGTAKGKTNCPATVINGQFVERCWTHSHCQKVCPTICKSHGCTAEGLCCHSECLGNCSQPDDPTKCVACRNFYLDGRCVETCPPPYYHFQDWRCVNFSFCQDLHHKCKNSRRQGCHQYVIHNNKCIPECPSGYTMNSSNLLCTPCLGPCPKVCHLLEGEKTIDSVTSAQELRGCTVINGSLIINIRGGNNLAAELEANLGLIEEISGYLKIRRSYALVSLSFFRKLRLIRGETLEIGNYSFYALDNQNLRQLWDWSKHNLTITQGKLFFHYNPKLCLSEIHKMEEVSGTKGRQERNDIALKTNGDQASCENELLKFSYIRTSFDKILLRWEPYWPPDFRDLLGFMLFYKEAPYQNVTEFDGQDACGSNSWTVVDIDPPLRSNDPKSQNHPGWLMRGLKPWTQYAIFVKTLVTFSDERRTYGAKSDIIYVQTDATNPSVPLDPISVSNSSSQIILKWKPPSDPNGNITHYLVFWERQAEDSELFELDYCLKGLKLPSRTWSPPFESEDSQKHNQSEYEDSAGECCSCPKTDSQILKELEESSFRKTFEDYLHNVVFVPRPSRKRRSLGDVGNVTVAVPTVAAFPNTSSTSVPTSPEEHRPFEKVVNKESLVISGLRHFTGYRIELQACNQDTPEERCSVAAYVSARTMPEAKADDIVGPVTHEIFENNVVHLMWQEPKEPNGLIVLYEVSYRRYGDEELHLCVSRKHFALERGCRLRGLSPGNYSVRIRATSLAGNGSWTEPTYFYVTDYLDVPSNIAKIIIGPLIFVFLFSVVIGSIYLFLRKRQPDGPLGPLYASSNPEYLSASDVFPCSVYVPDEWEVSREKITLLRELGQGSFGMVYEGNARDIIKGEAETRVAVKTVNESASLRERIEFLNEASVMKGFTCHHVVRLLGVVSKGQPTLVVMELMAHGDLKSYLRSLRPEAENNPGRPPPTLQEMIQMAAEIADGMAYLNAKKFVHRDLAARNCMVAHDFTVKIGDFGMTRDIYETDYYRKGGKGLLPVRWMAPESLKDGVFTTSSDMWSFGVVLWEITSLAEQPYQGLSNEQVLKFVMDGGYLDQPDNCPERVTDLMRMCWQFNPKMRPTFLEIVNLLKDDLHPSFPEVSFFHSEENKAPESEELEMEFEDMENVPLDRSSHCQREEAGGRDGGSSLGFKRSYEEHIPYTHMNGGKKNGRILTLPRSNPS
T1 sequence (P06213 763-1382 partner limits assumed): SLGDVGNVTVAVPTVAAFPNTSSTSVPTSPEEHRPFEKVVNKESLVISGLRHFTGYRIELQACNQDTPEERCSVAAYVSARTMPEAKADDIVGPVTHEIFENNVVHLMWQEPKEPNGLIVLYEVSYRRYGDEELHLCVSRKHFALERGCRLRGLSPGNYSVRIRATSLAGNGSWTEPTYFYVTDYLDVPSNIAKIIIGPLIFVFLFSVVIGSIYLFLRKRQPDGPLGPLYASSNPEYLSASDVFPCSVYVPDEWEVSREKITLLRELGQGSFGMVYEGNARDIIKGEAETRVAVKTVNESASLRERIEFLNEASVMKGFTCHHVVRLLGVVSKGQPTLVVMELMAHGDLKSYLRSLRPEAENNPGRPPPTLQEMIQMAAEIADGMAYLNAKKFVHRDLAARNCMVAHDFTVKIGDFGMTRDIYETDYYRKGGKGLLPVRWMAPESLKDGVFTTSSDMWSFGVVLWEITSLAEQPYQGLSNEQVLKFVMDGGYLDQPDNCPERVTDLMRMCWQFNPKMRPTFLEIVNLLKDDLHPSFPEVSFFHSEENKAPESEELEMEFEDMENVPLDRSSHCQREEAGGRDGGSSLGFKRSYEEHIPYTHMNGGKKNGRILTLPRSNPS
T2 sequence (P06213 28-1370 isoform P06213-2 limits assumed): as the sequence (P06213 28-1370 isoform P06213-2 limits assumed) above
T2 sequence (P06213 763-1382 partner limits assumed): as the sequence (P06213 763-1382 partner limits assumed) above

Structure (SMILES): CC[C@H](C)[C@H](NC(=O)[C@H](CCC(N)=O)NC(=O)[C@H](C)NC(=O)[C@H](Cc1c[nH]c2ccccc12)NC(=O)[C@H](CCC(=O)O)NC(=O)[C@H](CCC(=O)O)NC(=O)[C@H](CCC(=O)O)NC(=O)[C@H](CC(C)C)NC(=O)[C@H](CO)NC(C)=O)C(=O)N[C@@H](C)C(=O)N[C@H]1CSSC[C@@H](C(=O)N2CCC[C@H]2C(=O)N2CCC[C@H]2C(=O)N[C@@H](CO)C(=O)N[C@@H](CCC(=O)O)C(=O)N[C@@H](CO)C(N)=O)NC(=O)[C@H](CCCNC(=N)N)NC(=O)CNC(=O)[C@H](Cc2ccc(O)cc2)NC(=O)[C@H](C(C)C)NC(=O)[C@H](CCC(=O)O)NC1=O [Peptide E10A] (Ac-SLEEEWAQIACEVYGRCPPSES-NH2; disulfide 11-17)
- Ki (human IR-A (holoIR-A); [2]): 19 nM
- Ki (human IR-A (holoIR-A); [3]): 19.4 nM
- Ki (human IR-A (holoIR-A); [4]): 16.4 nM
- Ki (human IR-A (holoIR-A); [5]): 21.2 nM
- reduction in ki for hIR-A on substitution (human IR-A (holoIR-A)): lower than 5 fold
- hIRA Phosph IC50 Run 1 [1]: 272 nM
- hIRA Phosph IC50 Run 2 [1]: 217 nM
- hIRA Phosph IC50 Run 3 [1]: 236 nM
- IC50 [1]: 242 nM

Structure (SMILES): CC[C@H](C)[C@H](NC(=O)[C@H](CCC(N)=O)NC(=O)[C@H](C)NC(=O)[C@H](Cc1c[nH]c2ccccc12)NC(=O)[C@H](CCC(=O)O)NC(=O)[C@H](CCC(=O)O)NC(=O)[C@H](C)NC(=O)[C@H](CC(C)C)NC(=O)[C@H](CO)NC(C)=O)C(=O)N[C@@H](CCC(=O)O)C(=O)N[C@H]1CSSC[C@@H](C(=O)N2CCC[C@H]2C(=O)N2CCC[C@H]2C(=O)N[C@@H](CO)C(=O)N[C@@H](CCC(=O)O)C(=O)N[C@@H](CO)C(N)=O)NC(=O)[C@H](CCCNC(=N)N)NC(=O)CNC(=O)[C@H](Cc2ccc(O)cc2)NC(=O)[C@H](C(C)C)NC(=O)[C@H](CCC(=O)O)NC1=O [Peptide E3A] (Ac-SLAEEWAQIECEVYGRCPPSES-NH2; disulfide 11-17)
- Ki (human IR-A (holoIR-A); [2]): 342 nM
- Ki (human IR-A (holoIR-A); [3]): 335 nM
- Ki (human IR-A (holoIR-A); [4]): 353 nM
- Ki (human IR-A (holoIR-A); [5]): 337 nM
- hIRA Phosph IC50 Run 1 [1]: 1212 nM
- hIRA Phosph IC50 Run 2 [1]: 1189 nM
- hIRA Phosph IC50 Run 3 [1]: 1302 nM
- IC50 [1]: 1230 nM

Structure (SMILES): CC[C@H](C)[C@H](NC(=O)[C@H](CCC(N)=O)NC(=O)[C@H](C)NC(=O)[C@H](Cc1c[nH]c2ccccc12)NC(=O)[C@H](CCC(=O)O)NC(=O)[C@H](CCCNC(=N)N)NC(=O)[C@H](CCC(=O)O)NC(=O)[C@H](CC(C)C)NC(=O)[C@H](CO)NC(C)=O)C(=O)N[C@@H](CCC(=O)O)C(=O)N[C@H]1CSSC[C@@H](C(=O)N2CCC[C@H]2C(=O)N2CCC[C@H]2C(=O)N[C@@H](CO)C(=O)N[C@@H](CCC(=O)O)C(=O)N[C@@H](CO)C(N)=O)NC(=O)[C@H](CCCNC(=N)N)NC(=O)CNC(=O)[C@H](Cc2ccc(O)cc2)NC(=O)[C@H](C(C)C)NC(=O)[C@H](CCC(=O)O)NC1=O [Peptide E4R] (Ac-SLEREWAQIECEVYGRCPPSES-NH2; disulfide 11-17)
- Ki (human IR-A (holoIR-A); [2]): 38 nM
- Ki (human IR-A (holoIR-A); [3]): 42.4 nM
- Ki (human IR-A (holoIR-A); [4]): 35.7 nM
- Ki (human IR-A (holoIR-A); [5]): 35.9 nM
- hIRA Phosph IC50 Run 1 [1]: 367 nM
- hIRA Phosph IC50 Run 2 [1]: 259 nM
- hIRA Phosph IC50 Run 3 [1]: 348 nM
- IC50 [1]: 325 nM

Structure (SMILES): CC[C@H](C)[C@H](NC(=O)[C@H](CCC(N)=O)NC(=O)[C@H](C)NC(=O)[C@H](Cc1c[nH]c2ccccc12)NC(=O)[C@H](CCC(=O)O)NC(=O)[C@H](CCC(=O)O)NC(=O)[C@H](CCC(=O)O)NC(=O)[C@H](CC(C)C)NC(=O)[C@H](CO)NC(C)=O)C(=O)N[C@@H](CCC(=O)O)C(=O)N[C@H]1CSSC[C@@H](C(=O)N2CCC[C@H]2C(=O)N2CCC[C@H]2C(=O)N[C@@H](CO)C(=O)N[C@@H](CCC(=O)O)C(=O)N[C@@H](CO)C(N)=O)NC(=O)[C@H](CCC(=O)O)NC(=O)CNC(=O)[C@H](Cc2ccc(O)cc2)NC(=O)[C@H](C(C)C)NC(=O)[C@H](CCC(=O)O)NC1=O [Peptide R16E] (Ac-SLEEEWAQIECEVYGECPPSES-NH2; disulfide 11-17)
- Ki (human IR-A (holoIR-A); [2]): 167 nM
- Ki (human IR-A (holoIR-A); [3]): 145 nM
- Ki (human IR-A (holoIR-A); [4]): 184 nM
- Ki (human IR-A (holoIR-A); [5]): 172 nM
- hIRA Phosph IC50 Run 1 [1]: 1117 nM
- hIRA Phosph IC50 Run 2 [1]: 1161 nM
- hIRA Phosph IC50 Run 3 [1]: 1465 nM
- IC50 [1]: 1250 nM

Structure (SMILES): CC[C@H](C)[C@H](NC(=O)[C@H](CCC(N)=O)NC(=O)[C@H](C)NC(=O)[C@H](Cc1c[nH]c2ccccc12)NC(=O)[C@H](CCC(=O)O)NC(=O)[C@H](CCC(=O)O)NC(=O)[C@H](CCC(=O)O)NC(=O)[C@H](CC(C)C)NC(=O)[C@H](CO)NC(C)=O)C(=O)N[C@@H](CCC(=O)O)C(=O)N[C@H]1CSSC[C@@H](C(=O)N[C@@H](C)C(=O)N2CCC[C@H]2C(=O)N[C@@H](CO)C(=O)N[C@@H](CCC(=O)O)C(=O)N[C@@H](CO)C(N)=O)NC(=O)[C@H](CCCNC(=N)N)NC(=O)CNC(=O)[C@H](Cc2ccc(O)cc2)NC(=O)[C@H](C(C)C)NC(=O)[C@H](CCC(=O)O)NC1=O [Peptide P18A] (Ac-SLEEEWAQIECEVYGRCAPSES-NH2; disulfide 11-17)
- Ki (human IR-A (holoIR-A); [2]): 23.1 nM
- Ki (human IR-A (holoIR-A); [3]): 20.6 nM
- Ki (human IR-A (holoIR-A); [4]): 21.2 nM
- Ki (human IR-A (holoIR-A); [5]): 27.3 nM
- reduction in ki for hIR-A on substitution (human IR-A (holoIR-A)): lower than 5 fold
- hIRA Phosph IC50 Run 1 [1]: 158 nM
- hIRA Phosph IC50 Run 2 [1]: 143 nM
- hIRA Phosph IC50 Run 3 [1]: 123 nM
- IC50 [1]: 141 nM

Structure (SMILES): CC[C@H](C)[C@H](NC(=O)[C@H](CCC(N)=O)NC(=O)[C@H](C)NC(=O)[C@H](Cc1c[nH]c2ccccc12)NC(=O)[C@H](CCC(=O)O)NC(=O)[C@H](CCC(=O)O)NC(=O)[C@H](CCC(=O)O)NC(=O)[C@H](C)NC(=O)[C@H](CO)NC(C)=O)C(=O)N[C@@H](CCC(=O)O)C(=O)N[C@H]1CSSC[C@@H](C(=O)N2CCC[C@H]2C(=O)N2CCC[C@H]2C(=O)N[C@@H](CO)C(=O)N[C@@H](CCC(=O)O)C(=O)N[C@@H](CO)C(N)=O)NC(=O)[C@H](CCCNC(=N)N)NC(=O)CNC(=O)[C@H](Cc2ccc(O)cc2)NC(=O)[C@H](C(C)C)NC(=O)[C@H](CCC(=O)O)NC1=O [Peptide L2A] (Ac-SAEEEWAQIECEVYGRCPPSES-NH2; disulfide 11-17)
- Ki (human IR-A (holoIR-A); [2]): > 5000 nM
- Ki (human IR-A (holoIR-A); [3]): >5000 nM
- Ki (human IR-A (holoIR-A); [4]): >5000 nM
- Ki (human IR-A (holoIR-A); [5]): >5000 nM
- binding of the mutant peptide to hIR-A (in words) (human IR-A (holoIR-A); alanine substitution in IM172N22(-)): no detectable binding
- hIRA Phosph IC50 Run 1 [1]: 7523 nM
- hIRA Phosph IC50 Run 2 [1]: 7642 nM
- hIRA Phosph IC50 Run 3 [1]: 7687 nM
- IC50 [1]: 7620 nM
